Experimental data published in patent US9884863B2, “STAT3 inhibitor” (Board of Regents, The University of Texas System, priority 2013, dated 2018).
Read-outs that look alike come from different tables or passages of the source.

Tests used:
Assay type in all cases: cell-based, human
MCF-7 = assay: MTS cell proliferation assay, MCF-7; settings: for IC50: Homo sapiens; for inhibition on breast cancer cell proliferation (FIG. 1): MCF-7, 48 hr, μM concentrations
In short: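 MCF-7 human breast cancer cells were exposed to test compounds at a range of concentrations, then proliferation was measured with the MTS reagent from Promega's CellTiter 96 AQueous Non-Radioactive Cell Proliferation Assay kit. After 1 hr at 37° C., OD at 550 nm was read on a 96-well iMark Microplate Absorbance Reader, with quadruplicate wells per concentration.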

MDA-MB-231 = assay: MTS cell proliferation assay, MDA-MB-231; settings: Homo sapiens, MDA-MB-231, >10 = no effect
In short: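 Cells are exposed to DMSO or STAT3 inhibitors at 0.01-100 μM for 72 h, or at 1, 5 and 10 μM. Proliferation is read by MTS absorbance at 550 or 560 nm after 1 h at 37 °C. Each concentration is run in quadruplicate wells.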

AsPC1 = assay: MTS cell proliferation assay, AsPC1; settings: Homo sapiens, ASPC1
Method: (§1) Cancer cells (breast cancer cell lines MCF-7, MDA-MB-361, SKBR3 and MDA-MB-231, pancreatic cancer cell lines AsPC-1. BxPC3 and Panc-1) were seeded in 96-well plates at a density of 1000-2000 cells/well and treated with DMSO, 0.01, 0.1, 1, 5, 10, and […] of STAT3 individual inhibitors for 72 hrs. Proliferation was measured by treating cells with the 3-(4,5-dimethylthiazol-2-yl)-5-(3-carboxymethoxyphenyl)-2-(4-sulfophenyl)-2H-tetrazolium) (MTS) in a CellTiter 96t AQueous Non-Radioactive Cell Proliferation Assay kit from Promega, Madison, Wis., USA). Absorbance of all wells was determined by measuring OD at 550 nm after 1 hr incubation at 37° C. on a 96-well iMark™ Microplate Absorbance Reader (BioRad, Hercules, Calif.). Each individual compound was tested in quadruplicate wells for each concentration, and the results were reported as mean absorption±s.e.
(§2) In Vitro Determination of Effects of Synthesized Compounds on Cancer Cell Proliferation. Cancer cells (breast cancer cell lines MCF-7 and MDA-MB-231, pancreatic cancer cell lines AsPC-1 and Panc-1) were seeded in 96-well plates at a density of 2×10^3 cells/well and treated with DMSO, 0.01, 0.1, 1, 5, 10, and 100 μM of individual STAT3 inhibitors for 72 h. Proliferation was measured by treating cells with the 3-(4,5-dimethylthiazol-2-yl)-5-(3-carboxymethoxyphenyl)-2-(4-sulfophenyl)-2H-tetrazolium) (MTS) in a CellTiter 96t Aqueous Non-Radioactive Cell Proliferation Assay kit (Promega, Madison, Wis., USA). Absorbance of all wells was determined by measuring OD at 550 nm after 1 h incubation at 37° C. on a 96-well iMark™ Microplate Absorbance Reader (BioRad, Hercules, Calif.). Each individual compound was tested in quadruplicate wells for each concentration.

Panc-1 = assay: MTS cell proliferation assay, Panc-1; settings: Homo sapiens, PANC-1
Method: as §1, §2

[1] = MCF7, 72 h, read-out: IC50 MCF-7 (Table 1)
[2] = ER-negative breast cancer, 72 hrs, read-out: IC50 MDA-MB-231 (Table 1)
[3] = pancreatic cancer, 72 hrs, >10 = no effect, read-out: IC50 AsPC1 (Table 1)
[4] = pancreatic cancer, 72 hrs, >10 = no effect, read-out: IC50 Panc-1 (Table 1)
[5] = MCF7, Table 2 numbering 1-14, >10 = no effect, read-out: IC50 MCF-7 (Table 2)
[6] = Table 2 numbering 1-14, read-out: IC50 MDA-MB-231 (Table 2)
[7] = Table 2 numbering 1-14, read-out: IC50 AsPC1 (Table 2)
[8] = Table 2 numbering 1-14, read-out: IC50 Panc-1 (Table 2)
[9] = MCF7, Example 4 numbering, 72 h, >10 = no effect, read-out: IC50 MCF-7 (Table 4)
[10] = Example 4 numbering, 72 h, read-out: IC50 MDA-MB-231 (Table 4)
[11] = Example 4 numbering, 72 h, >10 = no effect, read-out: IC50 AsPC1 (Table 4)
[12] = Example 4 numbering, 72 h, >10 = no effect, read-out: IC50 Panc-1 (Table 4)

Row | SMILES | IC50 (MCF-7; [1]) [µM] | IC50 (MDA-MB-231; [2]) [µM] | IC50 (AsPC1; [3]) [µM] | IC50 (Panc-1; [4]) [µM] | inhibition on breast cancer cell proliferation (FIG. 1) (MCF-7) | other results
1 | N#C/C(=C\c1cccc(Br)n1)C(=O)Nc1ccc2c(c1)S(=O)(=O)C=C2 [HJC-3-71, 3-(6-Bromo-pyridin-2-yl)-2-cyano-N-(1,1-dioxo-1H-1λ^6-benzo[b]thiophen-6-yl)-acrylamide] | 3.31 | 1.53 | 1.54 | 1.64 | significant inhibition | 
2 | COC1CS(=O)(=O)c2cc(NC(=O)c3cc(Cl)ccc3O)ccc21 (stereo not drawn) [Compound 14] |  |  |  |  |  | IC50 (MCF-7; [5]): 6.07 µM; IC50 (MDA-MB-231; [6]): 7.05 µM; IC50 (AsPC1; [7]): 8.46 µM; IC50 (Panc-1; [8]): 8.39 µM
3 | O=C(Nc1ccc2c(c1)S(=O)(=O)C=C2)c1cc(Cl)ccc1O [Compound 1] |  |  |  |  |  | IC50 (MCF-7; [5]): 0.91 µM; IC50 (MDA-MB-231; [6]): 1.64 µM; IC50 (AsPC1; [7]): 1.92 µM; IC50 (Panc-1; [8]): 2.34 µM
4 | C[C@H](NC(=O)c1cc(Cl)ccc1O)c1ccccc1 [Compound 9] |  |  |  |  |  | IC50 (MCF-7; [9]): 0.9 µM; IC50 (MCF-7; MCF7, Example 4 numbering, read-out: IC50 MCF-7 (Example 4)): 0.9 µM; IC50 (MDA-MB-231; [10]): 8.88 µM; IC50 (AsPC1; [11]): 7.54 µM; IC50 (Panc-1; [12]): 8.44 µM
5 | O=C(Nc1ccc2c(c1)S(=O)(=O)C=C2)c1ccnc(-c2ccccc2)c1 [HJC-4-30, N-(1,1-Dioxo-1H-1λ^6-benzo[b]thiophen-6-yl)-2-phenyl-isonicotinamide] | 3.78 | 1.85 | 1.3 | 3.35 | significant inhibition | 
6 | Cc1ccc(S(=O)(=O)Nc2ccc3c(c2)S(=O)(=O)C=C3)cc1 [HJC-3-70, N-(1,1-Dioxo-1H-1λ^6-benzo[b]thiophen-6-yl)-4-methylbenzenesulfonamide] | 3.24 | 2.66 | 1.92 | 2.89 |  | 
7 | O=C(Nc1ccc2c(c1)S(=O)(=O)C=C2)c1cc(Cl)ccc1O [Compd 12] |  |  |  |  |  | IC50 (MCF-7; [9]): 0.91 µM; IC50 (MDA-MB-231; [10]): 1.64 µM; IC50 (AsPC1; [11]): 1.92 µM; IC50 (Panc-1; [12]): 2.34 µM
8 | C[C@H](NC(=O)c1cc(-c2ccccc2)nc2ccccc12)c1ccccc1 [Compound 8] |  |  |  |  |  | IC50 (MCF-7; [9]): 2.24 µM; IC50 (MDA-MB-231; [10]): 86 µM; IC50 (AsPC1; [11]): > 10 µM; IC50 (Panc-1; [12]): > 10 µM

The next lines start with results.

Row | IC50 (MCF-7; [1]) [µM] | IC50 (MDA-MB-231; [2]) [µM] | IC50 (AsPC1; [3]) [µM] | IC50 (Panc-1; [4]) [µM] | SMILES | inhibition on breast cancer cell proliferation (FIG. 1) (MCF-7) | other results
9 | 1.76 | 1.97 | 0.27 | 1.88 | NCCCOc1ccc(Cl)cc1C(=O)Nc1ccc2c(c1)S(=O)(=O)C=C2 [HJC-4-16, 2-(3-Aminopropoxy)-5-chloro-N-(1,1-dioxo-1H-1λ^6-benzo[b]thiophen-6-yl)benzamide] | significant inhibition | 
10 | 2.56 | 3.29 | 1.87 | 3.69 | O=C(Nc1ccc2c(c1)S(=O)(=O)C=C2)c1cc(Cl)ccc1OCCN1CCNCC1 [HJC-4-13, 5-Chloro-N-(1,1-dioxo-1H-1λ^6-benzo[b]thiophen-6-yl)-2-(2-piperazin-1-yl-ethoxy) benzamide] |  | 
11 | 3.11 | 2.61 | 4.2 | 3.11 | NCCCOc1ccc(Cl)cc1C(=O)Nc1ccc([N+](=O)[O-])cc1Cl [HJC-3-8, 2-(3-Aminopropoxy)-5-chloro-N-(2-chloro-4-nitrophenyl)benzamide] | significant inhibition | 
12 | 3.15 | 3.12 | 2.05 | 3.09 | CNCCOc1ccc(Cl)cc1C(=O)Nc1ccc2c(c1)S(=O)(=O)C=C2 [HJC-4-28, 5-Chloro-N-(1,1-dioxo-1H-1λ^6-benzo[b]thiophen-6-yl)-2-(2-methylaminoethoxy)benzamide] | significant inhibition | 
